Reference: patent publication US11034726B2, “Gene expression inhibitors” (PIVARIS BIOSCIENCE GMBH, priority 2017, dated 2021)
Peptide text beside a SMILES is read from it.

Experiments:
[1] = tested on: lentivirus containing luciferase under control of the CMV promoter; assay: Lentivirus luciferase gene expression in HEK293 cells; format: cell-based; settings: 20 μM, 48 hrs
Description: HEK293 cells were incubated with peptide I24, TAT-tagged peptide I24 (TAT-I24), or TAT followed by addition of lentivirus containing luciferase under control of the CMV promoter for 48 hrs.

herpes simplex virus = assay: Herpes simplex virus plaque-formation assay; format: cell-based
Source text: Cells were infected with herpes simplex virus and replication of virus determined by a plaque-formation assay (see examples above). Replication of herpes simplex virus was inhibited by TAT-I24 in a dose-dependent manner.

[2] = tested on: plasmid-encoded luciferase in HEK293 cells; assay: Transient transfection of luciferase expression plasmid (CMV promoter) with peptide, luciferase in cell lysates
[3] = tested on: baculovirus encoding luciferase under control of the CMV promoter; assay: Baculovirus-mediated luciferase gene expression in HEK293 cells; format: cell-based
Description: A baculovirus was generated with the luciferase coding region under control of the CMV promoter integrated in its viral genome. The baculovirus was applied to HEK293 cells pretreated for 10 minutes with DMSO or increasing concentrations of peptide I24, TAT and the fusion peptide TAT-I24. Luciferase expression is reduced in cells treated with cell-permeable fusion peptide TAT-I24 in a dose-dependent manner (FIG. 7a). Baculovirus-infected cells incubated with DMSO, TAT-I24 or TAT were stimulated with TNF-α and total RNA isolated from cells. After treatment of the RNA with DNAse I, reverse transcription was performed. Luciferase and IL-8 mRNA were analysed by real-time PCR.

[4] = tested on: adenovirus encoding luciferase and GFP; assay: Adenovirus gene expression and replication in HEK293 cells; format: cell-based
Description: HEK293 cells were treated with increasing concentrations of the peptides I24, TAT-I24 or TAT alone and incubated with adenovirus encoding luciferase and green fluorescence protein (GFP) under control of the CMV promoter. […] HEK293 cells were treated with vehicle control, the peptide I24, TAT-I24 or TAT alone (20 μM) and adenovirus particles encoding luciferase and GFP. After 72 hrs, RNA was isolated and luciferase and GFP as well as adenovirus hexon transcript levels analysed by real-time PCR and normalized to GAPDH. […] DNA was isolated from supernatants and adenovirus hexon DNA quantified using real-time PCR (FIG. 8c).

vaccinia virus = format: cell-based
[5] = TNF-α stimulated, real-time PCR

With CC(C)C[C@H](NC(=O)[C@H](CS)NC(=O)[C@H](CCC(N)=O)NC(=O)[C@@H]1CCCN1C(=O)[C@@H]1CCCN1C(=O)[C@H](CCCNC(=N)N)NC(=O)[C@H](CCCNC(=N)N)NC(=O)[C@H](CCCNC(=N)N)NC(=O)[C@H](CCC(N)=O)NC(=O)[C@H](CCCNC(=N)N)NC(=O)[C@H](CCCNC(=N)N)NC(=O)[C@H](CCCCN)NC(=O)[C@H](CCCCN)NC(=O)[C@H](CCCNC(=N)N)NC(=O)CN)C(=O)N[C@@H](C)C(=O)N[C@@H](Cc1ccccc1)C(=O)N[C@@H](Cc1ccc(O)cc1)C(=O)N[C@@H](C)C(=O)N[C@@H](CS)C(=O)N[C@@H](Cc1ccccc1)C(=O)N[C@@H](CS)C(=O)O [TAT-I24] (H-GRKKRRQRRRPPQCLAFYACFC-OH; N-terminus and C-terminus assumed) the “reduction in luciferase levels, lentivirus” value [1] was 75%, the “replication of herpes simplex virus” value (herpes simplex virus) was “inhibited” and the “luciferase % of DMSO con-” value ([2]; peptide 2 μM, 24 hrs post-transfection, HEK293, relative to DMSO control) was 1.8%. For the same molecule, the “inhibition of luciferase production (in words)” value ([2]; peptide transfected with CMV-luciferase plasmid, HEK293, 24 hrs) was “more potent inhibition of luciferase expression”, the IC50 ([2]; read-out: IC50 inhibition of plasmid-encoded luciferase levels, transfected together with the plasmid-DNA) was 0.06 µM and the “baculovirus-mediated luciferase expression (in words)” value ([3]; HEK293 pretreated for 10 minutes) was “reduced”. The “IL-8 mRNA levels (cellular gene)” value [3, 5] was “remained unaffected”, the “luciferase mRNA (baculovirus-encoded)” value [3, 5] was “down-regulated” and the “luciferase, GFP and adenovirus hexon transcript levels” value ([4]; 20 μM, 72 hrs, normalized to GAPDH) was “inhibition of all three adenovirus-encoded genes”. The “cell detachment of virus-infected HEK293 cells” value ([4]; 96 hrs after infection, crystal violet staining) was “inhibition of cell detachment”, the IC50 ([4]; HEK293, read-out: IC50 luciferase protein levels, adenovirus) was 6 µM and the “adenovirus particles released to supernatants (hexon DNA)” value ([4]; real-time PCR of supernatant DNA) was “inhibits formation and release of adenovirus particles to supernatants”. For the same molecule, the “inhibition of virus replication, vaccinia virus” value (vaccinia virus; 20 μM) was over 90%, the “reduction of amount of viral DNA in the supernatants” value (vaccinia virus; 20 μM, 24 hrs after infection) was over 90% and the “reduction of number of plaque forming units (PFU) in the supernatants” value (vaccinia virus; 20 μM, plaque assay using BSC-40 cells) was over 90%. For the same molecule, the “rpo22 mRNA levels (in words)” value (vaccinia virus; 24 hrs after infection, normalized to GAPDH) was “dose-dependently inhibited”.
